Test results as given in patent US20180249725A1, “ANTIMICROBIAL COMPOSITIONS” (priority 2015, published 2018).
Marks after values point to notes of the source that are not given here.

Legend:
Listeria = details: pure form; cited from earlier work
[1] = stored in cold; applied at 300 ppm; cited from earlier work
Listeria monocytogenes = Listeria monocytogenes growth in inoculated raw minced beef under modified atmosphere; assay type: cell-based; details: for Measured effect on Listeria monocytogenes growth: [(log(CFU/mL) in meat treated with plant extracts) − (log(CFU/mL) control meat (without treatment))]: rosemary/hesperidin series added at 1.18% to minced beef, 8° C., 70% O2 and 30% CO2; for Expected effect on Listeria monocytogenes growth (difference of log(CFU/mL) to control meat): rosemary/hesperidin series, calculated from effects of the single extracts
Experimental: In the course of the work leading to the present method and composition, mixtures of rosemary extract and of hesperidin or of Punica extract, in a number of varying concentration ratios were tested for antilisterial effectiveness using the classical microbiological methods. Bacterial enumeration in all here studied samples was performed on the Aloa medium according to the standardized method (NF EN ISO 11-290). The growth of Listeria monocytogenes was evaluated in meat without any antilisterial agent and without any plant extract (control). The data of listerial growth in a control meat are represented in FIG. 2. […] Following the meat manufacture, a batch of meat was sampled straight after the mincing process and transported in refrigerated conditions to the laboratory. […] Any further supplementation to the meat was conducted in such a laboratory. […] Plant extracts were in powder form and were added as such to the meat. To keep them as dry powders, plant extracts were supplemented with maltodextrin prior to drying process. […] Control meat pieces, without extract treatment, followed the same procedure. […] Packaged meat was stored in the dark for a stated amount of time. A series of experiments involving rosemary and hesperidin extracts, rosemary and Punica extracts, typical antilisterial compounds (Sodium lactate or Sodium acetate) and untreated control were conducted. Mixtures or alone extracts of rosemary and of hesperidin were added at 1.18% to the meat. […] Such analyses were conducted on the 0th, 6th and 9th day of storage. The growth of Listeria monocytogenes was evaluated in meat in refrigerated conditions for each extract or compound and for their combinations. […] Logarithmic values of Listerial growth (log CFU/mL) were calculated for each experiment and treatment. Differences of logarithmic values of Listerial growth (log CFU/mL) between the meat treated with plant extracts and the untreated control were calculated to yield a final result. The more negative value was obtained, the higher was the antilisterial effect of the extract or of the combination of extracts. […] (Guide pour la validation de méthodes d'essais microbiologiques et l'évaluation de leur incertitude de mesure dans les domaines de la microbiologie […]'environnement), Schweizerische Eidgenossenschaft, Confédération suisse, Département […]'économie, de la formation et de la recherche DEFR, Document No. 328, April 2013, Rev. 03).

Compound: COc1ccc([C@@H]2CC(=O)c3c(O)cc(O[C@@H]4O[C@H](CO)[C@@H](O)[C@H](O)[C@H]4O[C@@H]4O[C@@H](C)[C@H](O)[C@@H](O)[C@H]4O)cc3O2)cc1O [neohesperidin]
- Effect on Listerial growth in vitro (Listeria): no effect

Compound: O=c1oc2c(O)c(O)cc3c(=O)oc4c(O)c(O)cc1c4c23 [ellagic acid]
- Antimicrobial effect on raw beef MAP meat [1]: no antimicrobial effect

Compound: hesperidin [0.5H]
- Measured effect on Listeria monocytogenes growth: [(log(CFU/mL) in meat treated with plant extracts) − (log(CFU/mL) control meat (without treatment))] (Listeria monocytogenes; after 6 days of growth): −0.37* log(CFU/mL)
- Measured effect on Listeria monocytogenes growth: [(log(CFU/mL) in meat treated with plant extracts) − (log(CFU/mL) control meat (without treatment))] (Listeria monocytogenes; after 9 days of growth): −0.71* log(CFU/mL)
- Expected effect on Listeria monocytogenes growth (difference of log(CFU/mL) to control meat) (Listeria monocytogenes; after 6 days of growth): −0.045 log(CFU/mL)
- Expected effect on Listeria monocytogenes growth (difference of log(CFU/mL) to control meat) (Listeria monocytogenes; after 9 days of growth): −0.32 log(CFU/mL)

Compound: COc1ccc([C@@H]2CC(=O)c3c(O)cc(O[C@@H]4O[C@H](CO[C@@H]5O[C@@H](C)[C@H](O)[C@@H](O)[C@H]5O)[C@@H](O)[C@H](O)[C@H]4O)cc3O2)cc1O [Hesperidin]
- Extract proportion in combination that provide antilisterial response in meat (Listeria monocytogenes; surface response methodology (FIG. 4), response difference to control <0.5 log(CFU/mL) as printed, total added to meat not above 1.18%): 0.5-48.0%

Compound: hesperidin
- Measured effect on Listeria monocytogenes growth: [(log(CFU/mL) in meat treated with plant extracts) − (log(CFU/mL) control meat (without treatment))] (Listeria monocytogenes; after 6 days of growth): −0.09 log(CFU/mL)
- Measured effect on Listeria monocytogenes growth: [(log(CFU/mL) in meat treated with plant extracts) − (log(CFU/mL) control meat (without treatment))] (Listeria monocytogenes; after 9 days of growth): −0.64 log(CFU/mL)
